A word on the IC50: it is the concentration that gives 50% inhibition.

Test [1] concerns the target T1, Aldo-keto reductase family 1 member B1 (Homo sapiens, UniProt P15121). Kind of test: Inhibition of human recombinant AKR1B1.
For test [2], the target named is T2, Aldo-keto reductase family 1 member B10 (Homo sapiens, UniProt O60218). As to the kind of experiment: Inhibition of AKR1B10 (unknown origin).
Test [3] concerns the target T2, Aldo-keto reductase family 1 member B10. As to the kind of experiment: Inhibition of human recombinant AKR1B10.
The target of test [4] is T1, Aldo-keto reductase family 1 member B1. Kind of test: Inhibition of human recombinant AKR1B1 by fluorescence based analysis.
For test [5] the target is unchanged. Kind of test: Inhibition of AKR1B1 (unknown origin).
Test [6] has the same target. Kind of test: Inhibition of N-terminal 6his-tagged wild type human recombinant AKR1B1 extracted from Escherichia coli BL21 (DE3) by fluorescence based analysis.

T2 sequence (O60218 whole entry): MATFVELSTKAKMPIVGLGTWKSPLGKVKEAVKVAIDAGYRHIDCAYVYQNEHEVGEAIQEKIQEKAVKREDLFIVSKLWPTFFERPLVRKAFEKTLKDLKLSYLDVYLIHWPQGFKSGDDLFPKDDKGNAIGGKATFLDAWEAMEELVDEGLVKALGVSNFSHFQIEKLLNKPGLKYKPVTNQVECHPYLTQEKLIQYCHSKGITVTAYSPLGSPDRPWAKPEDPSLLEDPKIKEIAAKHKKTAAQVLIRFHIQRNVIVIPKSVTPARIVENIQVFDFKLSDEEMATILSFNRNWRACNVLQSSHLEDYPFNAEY

For the compound `C=CCc1ccc(O)c(-c2cc(CC=C)ccc2O)c1` [MAGNOLOL], in test [1], the half-inhibitory concentration (IC50) amounted to 28000 nM.
`COc1cc(O)ccc1/C=C/C(=O)OCCCc1cccc(O)c1`: the half-maximal inhibitory concentration (IC50) in test [2] came out at 500 nM.
With `CC1=C(CC(=O)O)c2cc(F)ccc2/C1=C\c1ccc([S+](C)[O-])cc1` (stereo not given), the IC50 is 350 nM in test [3] and 210 nM in test [4].
`O=C(/C=C/c1ccc(O)c(O)c1)c1ccc(O)cc1O` [BUTEIN]: the 50% inhibitory concentration (IC50) in test [1] amounted to 500 nM.
Regarding `C[C@H](CCC(=O)O)[C@H]1CC[C@H]2[C@@H]3C[C@@H](O)[C@@]4(O)C[C@@H](O)CC[C@]4(CO)[C@H]3CC[C@]12C`, the values for the IC50 in test [2] and in test [5] were 760 nM and 5400 nM, respectively.
As for `C[C@]12CC[C@@H]3c4ccc(O)cc4CC[C@H]3[C@@H]1CCC2=O` [ESTRONE], the IC50 is 1600 nM in test [2] and 31000 nM in test [5].
In turn, `COc1ccc2c(C(=S)N(C)CC(=O)O)cccc2c1C(F)(F)F` [TOLRESTAT] displayed an IC50 in test [2] of 50 nM.
`O=c1c(O)c(-c2ccc(O)c(O)c2)oc2cc(O)cc(O)c12` [QUERCETIN] came in with a concentration for half-maximal inhibition (IC50) in test [2] of 1900 nM.
On to `COc1c(O)cc2oc3cc(O)c(CC=C(C)C)c(O)c3c(=O)c2c1CC=C(C)C` [MANGOSTIN], for which the IC50 in test [1] amounted to 4100 nM.
Turning to `C[C@]12CC[C@@H]3c4ccc(O)cc4CC[C@H]3[C@@H]1CC[C@@H]2O` [ESTRADIOL], the values for the IC50 in test [2] and in test [5] were 3000 nM and 24000 nM, respectively.
Consider `Cc1cc(O)c2c(c1)C(=O)c1cc(O)cc(O)c1C2=O` [EMODIN], for which, in test [1], the IC50 was found to be 3470 nM.
For the compound `CC(C)=CCC1=C(O)[C@](O)(CC=C(C)C)C(=O)C(C(=O)CC(C)C)=C1O`, the IC50 in test [2] is 1940 nM; in test [5] it was over 125000 nM.
On the same counts, the results for `C[C@]12CCC(=O)C[C@@H]1CC[C@@H]1[C@@H]2CC[C@]2(C)C(=O)CC[C@@H]12` are 390 nM and 25000 nM.
The compound `COc1cc(O)ccc1/C=C/C(=O)OCCCc1ccccc1O` showed a 50% inhibitory concentration (IC50) in test [2] of 100 nM.
`O=C(O)Cn1ccc(=O)n(Cc2ccc(Cl)c([N+](=O)[O-])c2)c1=O`: the IC50 in test [2] came out at 21600 nM; in test [5] it was 10000 nM.
As to `COc1ccc(OC)c(/N=c2\oc3cc(O)ccc3cc2C(=O)Nc2ccccn2)c1`, the IC50 in test [2] came out at 20 nM.
In test [5], `O=c1c(O)c(-c2cc(O)c(O)c(O)c2)oc2cc(O)cc(O)c12` [MYRICETIN] gave an IC50 of 610 nM.
On to `Cc1c2cc(O)c(=O)cc-2oc2cc(O)c(O)cc12`, for which, in test [2], the half-inhibitory concentration (IC50) was found to be 400 nM.
As for `Cc1cc(O)c2c(c1)C(=O)c1cc(O[C@@H]3O[C@@H](C)[C@H](O)[C@@H](O)[C@H]3O)cc(O)c1C2=O` [FRANGULIN A], the IC50 in test [1] is 5730 nM.
For `C/C(=C\c1ccc(C(=O)O)cc1Br)c1ccc2c(c1)C(C)(C)CCC2(C)C`, the concentration for half-maximal inhibition (IC50) in test [2] is 6100 nM; in test [5], over 70000 nM.
On to `CC(=O)[C@H]1CC[C@H]2[C@@H]3CC[C@@H]4CC(=O)CC[C@]4(C)[C@H]3CC[C@]12C`, for which the values for the IC50 in test [2] and in test [5] were 780 nM and 9000 nM, respectively.
On the same counts, the results for `C[C@]12CCC(=O)C[C@@H]1CC[C@@H]1[C@@H]2CC[C@]2(C)[C@@H](C(=O)CO)CC[C@@H]12` are 370 nM and 55000 nM.
For `COc1cc(/C=C/C(=O)CC(=O)/C=C/c2ccc(O)c(OC)c2)ccc1O` [CURCUMIN], the concentration for half-maximal inhibition (IC50) in test [1] was 7300 nM.
Consider `CC(=O)[C@H]1CC[C@H]2[C@@H]3CC[C@H]4C[C@@H](O)CC[C@]4(C)[C@H]3CC[C@]12C` [SEPRANOLONE], for which the figures for the IC50 in test [2] and in test [5] were 500 nM and 39000 nM, respectively.
On to `COc1cc(/C=C/C(=O)CC(=O)/C=C/c2ccc(O)cc2)ccc1O`, for which the 50% inhibitory concentration (IC50) in test [1] is 1200 nM.
Turning to `COc1ccc(/N=c2\oc3cc(O)ccc3cc2C(=O)Nc2ccccn2)cc1`, in test [2], the half-maximal inhibitory concentration (IC50) worked out at 500 nM.
Take `O=C(O)Cc1ccccc1Nc1c(Cl)cccc1Cl` [DICLOFENAC]: in test [4], the half-maximal inhibitory concentration (IC50) was over 100000 nM.
As for `CC(=O)[C@H]1CC[C@H]2[C@@H]3CC[C@H]4CC(=O)CC[C@]4(C)[C@H]3CC[C@]12C`, the IC50 in test [2] came out at 440 nM; in test [5], 13000 nM.
Compound `COc1ccc(/N=c2\oc3cc(O)ccc3cc2C(=O)Nc2ccccn2)c(OC)c1` had an IC50 in test [2] of 10 nM.
In the case of `O=c1c(-c2ccc(O)cc2)coc2cc(O)cc(O)c12` [GENISTEIN], the IC50 in test [2] worked out at 5500 nM.
As to `O=C(NCCCc1cccc(O)c1)c1cc2ccc(O)cc2oc1=O`, in test [2], the 50% inhibitory concentration (IC50) was 800 nM.
Turning to `CC(C)=CCc1c(O)cc2oc3cc(O)c(O)c(CC=C(C)C)c3c(=O)c2c1O`, the IC50 in test [1] turned out to be 290 nM.
As to `O=C(/C=C/c1ccc(O)c(O)c1)O[C@H]1C[C@@](O)(C(=O)O)C[C@H](O)[C@@H]1O`, inhibition in test [2] was half-maximal at 7900 nM (IC50).
In the case of `CC(C)=CCC1=C(O)[C@](O)(CC=C(C)C)C(=O)C(C(=O)C(C)C)=C1O`, in test [5], the half-inhibitory concentration (IC50) is over 125000 nM.
Consider `Oc1c(F)c(F)c(-c2c(F)c(F)c(O)c(F)c2F)c(F)c1F`, for which the IC50 in test [2] is 1000 nM; in test [5], 300 nM.
Consider `CC1(C)CC[C@]2(C(=O)O)CC[C@]3(C)C(=CC[C@@H]4[C@@]5(C)C[C@@H](O)[C@H](O)C(C)(C)[C@@H]5CC[C@]43C)[C@@H]2C1` [MASLINIC ACID], for which, in test [2], the IC50 is 600 nM.
As for `COc1cc(O)ccc1/C=C/C(=O)OCCc1ccccc1`, inhibition in test [2] was half-maximal at 10 nM (IC50).
Regarding `Oc1ccc(/C=C/c2cc(O)cc(O)c2)cc1` [RESVERATROL], the IC50 in test [1] stood at 73000 nM.
In turn, `C[C@H](CCC(=O)O)[C@H]1CC[C@H]2[C@@H]3CC[C@@H]4C[C@@H](O)CC[C@]4(C)[C@H]3CC[C@]12C` [ISOLITHOCHOLIC ACID] returned an IC50 in test [2] of 20 nM.
Take `C[C@@]12CCC[C@H]1[C@@H]1CC(=O)C3=CC(=O)CC[C@]3(C)[C@H]1CC2`: the IC50 was found to be 810 nM in test [2] and 158000 nM in test [5].
Taken in the same sequence, the figures for `C[C@H](CCC(=O)O)[C@H]1CC[C@H]2[C@@H]3C[C@@H](O)[C@@]4(O)C[C@@H](O)CC[C@]4(C)[C@H]3CC[C@]12C` were 830 nM and over 100000 nM.
On the same counts, the results for `C[C@]12CC[C@H](O)C[C@@H]1CC[C@@H]1[C@@H]2CC[C@]2(C)C(=O)CC[C@@H]12` [EPIANDROSTERONE] are 320 nM and 37000 nM.
For the compound `C[C@H](CCC(=O)O)[C@H]1CC[C@H]2[C@@H]3CC[C@@H]4CCCC[C@]4(C)[C@H]3CC[C@]12C` [URSOCHOLANIC ACID], the IC50 in test [2] stood at 50 nM; in test [5], 16000 nM.
As to `Cc1ccc(Cl)c(Nc2ccccc2C(=O)O)c1Cl` [MECLOFENAMIC ACID], the 50% inhibitory concentration (IC50) in test [3] is 9800 nM; in test [4], over 100000 nM.
Regarding `Cc1cc(O)c2c(c1)C(=O)c1cc(O[C@@H]3OC[C@](O)(CO)[C@H]3O)cc(O)c1C2=O` [FRANGULIN B], in test [1], the IC50 stood at 5450 nM.
Regarding `COc1c(Cn2c(=O)ccn(CC(=O)O)c2=O)cc(Br)c(Br)c1Br`, the IC50 in test [2] is 450 nM; in test [5], 3600 nM.
`NC(=O)[C@@H]1C[C@]2(NC(=O)NC2=O)c2cc(F)ccc2O1`: the IC50 was determined as 80 nM in test [6] and 24000 nM in test [2].
For `C[C@@]12CCC[C@H]1[C@@H]1C[C@H](O)C3=C[C@@H](O)CC[C@]3(C)[C@H]1CC2`, the IC50 was determined as 500 nM in test [2] and 68000 nM in test [5].
Regarding `COc1ccc(/N=c2\oc3cc(O)ccc3cc2C(=O)Nc2cccc(C)n2)cc1OC`, in test [2], the IC50 came out at 30 nM.
Regarding `O=c1cc(-c2ccccc2)oc2cc(O)cc(O)c12` [CHRYSIN], the IC50 is 2100 nM in test [2] and 290 nM in test [5].
On the same counts, the results for `COc1cc(O)c(CC=C(C)C)c2c1C(=O)C[C@@H](c1ccc(O)cc1)O2` are 1090 nM and 570 nM.
Regarding `C=CCc1cc(-c2cccc(CC=C)c2O)ccc1O`, the concentration for half-maximal inhibition (IC50) in test [1] turned out to be 36000 nM.

For the origin of these results see ChEMBL document CHEMBL6087480, “In Search for Inhibitors of Human Aldo-Keto Reductase 1B10 (AKR1B10) as Novel Agents to Fight Cancer and Chemoresistance: Current State-of-the-Art and Prospects” (J Med Chem, 2025).
